Results as given in ChEMBL document CHEMBL3217729, “Sangamides, a new class of cyclophilin-inhibiting host-targeted antivirals for treatment of HCV infection” (Medchemcomm, 2012).
Calls of active or inactive are those of the source. The calls are words filed in the database; no cut-off is given here.

How the values were obtained:
[1] = target: T1, ATP-binding cassette sub-family C member 2 (Homo sapiens, UniProt Q92887); assay: Inhibition of ATPase activity of MRP2 (unknown origin) expressed in membrane assessed as amount of phosphate released using probenecid as substrate at 14 uM by molybdenum blue assay
T1 sequence (Q92887 whole entry): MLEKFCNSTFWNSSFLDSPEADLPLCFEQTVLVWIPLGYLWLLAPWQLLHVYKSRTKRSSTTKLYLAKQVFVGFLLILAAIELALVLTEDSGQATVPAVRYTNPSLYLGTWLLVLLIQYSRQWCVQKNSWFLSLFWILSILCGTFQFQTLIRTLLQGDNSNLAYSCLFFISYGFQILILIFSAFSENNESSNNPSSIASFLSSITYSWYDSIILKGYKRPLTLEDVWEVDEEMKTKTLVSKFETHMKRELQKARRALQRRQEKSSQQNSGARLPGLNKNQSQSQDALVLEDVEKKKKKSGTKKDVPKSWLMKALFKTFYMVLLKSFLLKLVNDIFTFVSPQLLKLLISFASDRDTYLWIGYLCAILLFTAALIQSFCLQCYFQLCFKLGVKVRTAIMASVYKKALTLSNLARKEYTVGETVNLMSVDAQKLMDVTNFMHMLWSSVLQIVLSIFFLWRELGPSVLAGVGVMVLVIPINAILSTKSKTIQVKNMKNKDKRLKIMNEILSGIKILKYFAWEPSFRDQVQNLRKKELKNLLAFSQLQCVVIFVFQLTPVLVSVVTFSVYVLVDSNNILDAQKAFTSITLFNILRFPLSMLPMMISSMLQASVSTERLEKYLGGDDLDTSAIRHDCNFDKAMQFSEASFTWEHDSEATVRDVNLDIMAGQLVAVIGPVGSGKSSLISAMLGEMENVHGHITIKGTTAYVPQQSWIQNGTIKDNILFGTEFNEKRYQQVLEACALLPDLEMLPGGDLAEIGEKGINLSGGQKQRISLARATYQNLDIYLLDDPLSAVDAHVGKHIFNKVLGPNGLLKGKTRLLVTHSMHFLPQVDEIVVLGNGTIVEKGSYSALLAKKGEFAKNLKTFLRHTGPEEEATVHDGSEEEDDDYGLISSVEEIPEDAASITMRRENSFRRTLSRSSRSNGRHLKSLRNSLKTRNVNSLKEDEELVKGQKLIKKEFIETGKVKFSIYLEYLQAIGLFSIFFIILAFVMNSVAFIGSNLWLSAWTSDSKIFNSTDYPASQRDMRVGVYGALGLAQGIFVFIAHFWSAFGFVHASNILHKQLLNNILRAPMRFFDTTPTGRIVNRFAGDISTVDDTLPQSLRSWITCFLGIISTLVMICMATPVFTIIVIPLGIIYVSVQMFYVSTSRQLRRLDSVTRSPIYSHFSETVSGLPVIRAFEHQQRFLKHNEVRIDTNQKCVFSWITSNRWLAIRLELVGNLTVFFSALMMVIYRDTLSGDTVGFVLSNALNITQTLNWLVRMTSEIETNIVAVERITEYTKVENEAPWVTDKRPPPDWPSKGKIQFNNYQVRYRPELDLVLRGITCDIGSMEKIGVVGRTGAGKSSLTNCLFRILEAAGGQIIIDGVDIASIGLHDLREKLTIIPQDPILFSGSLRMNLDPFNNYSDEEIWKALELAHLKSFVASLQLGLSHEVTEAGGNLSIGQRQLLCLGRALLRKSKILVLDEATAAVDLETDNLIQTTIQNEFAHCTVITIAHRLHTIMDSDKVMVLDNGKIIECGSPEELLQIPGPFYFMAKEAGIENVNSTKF

Hepatitis C virus [2] = assay: Antiviral activity against Hepatitis C virus genotype 1b Con1 infected in human Huh7 cells assessed as viral rebound by measuring replicon RNA content at 0.5 to 1 uM after drug removal by RT-qPCR analysis; format: functional, cell-based; details: Hepacivirus hominis, Huh-7
[3] = Solubility of the compound in phosphate buffered saline at pH 7.4 after 4 hrs by LC-MS/MS analysis
Liver = assay: Drug level in CD-1 mouse liver at 5 mg/kg, po administered as single dose measured per gm of tissue for 24 hrs post-dose by LC-MS/MS analysis; format: ADME, organism-based; parameters: dose 5 mg/kg, route oral; details: in vivo
Hepatitis C virus [4] = assay: Antiviral activity against Hepatitis C virus genotype 1a H77 infected in human Huh7 cells assessed as decrease in subgenomic RNA level after 72 hrs by RT-PCR analysis; format: functional, cell-based, Hepacivirus hominis; details: genotype 1a H77, Huh-7, 72 h
[5] = Cytostatic activity against human Huh5-2 cells assessed as decrease in cell proliferation after 3 days by MTS method; format: ADME, cell-based, Huh-5-2
in vitro = details: mouse, liver microsomes
Description: Half life in mouse liver microsomes at 1 uM by LC-MS/MS analysis

Hepatitis C virus [6] = assay: Antiviral activity against Hepatitis C virus genotype 1b Con1 infected in human Huh7 cells assessed as decrease in subgenomic RNA level after 72 hrs by RT-PCR analysis; format: functional, cell-based, Hepacivirus hominis; details: genotype 1b Con1, Huh-7, 72 h
[7] = Half life in human liver microsomes at 1 uM by LC-MS/MS analysis; format: ADME
PBMC = assay: Immunosuppressive activity in human PBMC isolated from two individuals assessed as inhibition of proliferation using [3H]thymidine by mixed lymphocyte reaction assay; format: cell-based
[8] = target: ATP-dependent translocase ABCB1 (Homo sapiens, UniProt P08183); assay: Inhibition of MDR1 (unknown origin) expressed in MDCK1 cells assessed as reduction of loperamide substrate permeability up to 50 uM after 60 mins by LC-MS/MS analysis; format: ADME, cell-based; details: mdck1, 1 h
Sequence of ATP-dependent translocase ABCB1 (P08183 whole entry): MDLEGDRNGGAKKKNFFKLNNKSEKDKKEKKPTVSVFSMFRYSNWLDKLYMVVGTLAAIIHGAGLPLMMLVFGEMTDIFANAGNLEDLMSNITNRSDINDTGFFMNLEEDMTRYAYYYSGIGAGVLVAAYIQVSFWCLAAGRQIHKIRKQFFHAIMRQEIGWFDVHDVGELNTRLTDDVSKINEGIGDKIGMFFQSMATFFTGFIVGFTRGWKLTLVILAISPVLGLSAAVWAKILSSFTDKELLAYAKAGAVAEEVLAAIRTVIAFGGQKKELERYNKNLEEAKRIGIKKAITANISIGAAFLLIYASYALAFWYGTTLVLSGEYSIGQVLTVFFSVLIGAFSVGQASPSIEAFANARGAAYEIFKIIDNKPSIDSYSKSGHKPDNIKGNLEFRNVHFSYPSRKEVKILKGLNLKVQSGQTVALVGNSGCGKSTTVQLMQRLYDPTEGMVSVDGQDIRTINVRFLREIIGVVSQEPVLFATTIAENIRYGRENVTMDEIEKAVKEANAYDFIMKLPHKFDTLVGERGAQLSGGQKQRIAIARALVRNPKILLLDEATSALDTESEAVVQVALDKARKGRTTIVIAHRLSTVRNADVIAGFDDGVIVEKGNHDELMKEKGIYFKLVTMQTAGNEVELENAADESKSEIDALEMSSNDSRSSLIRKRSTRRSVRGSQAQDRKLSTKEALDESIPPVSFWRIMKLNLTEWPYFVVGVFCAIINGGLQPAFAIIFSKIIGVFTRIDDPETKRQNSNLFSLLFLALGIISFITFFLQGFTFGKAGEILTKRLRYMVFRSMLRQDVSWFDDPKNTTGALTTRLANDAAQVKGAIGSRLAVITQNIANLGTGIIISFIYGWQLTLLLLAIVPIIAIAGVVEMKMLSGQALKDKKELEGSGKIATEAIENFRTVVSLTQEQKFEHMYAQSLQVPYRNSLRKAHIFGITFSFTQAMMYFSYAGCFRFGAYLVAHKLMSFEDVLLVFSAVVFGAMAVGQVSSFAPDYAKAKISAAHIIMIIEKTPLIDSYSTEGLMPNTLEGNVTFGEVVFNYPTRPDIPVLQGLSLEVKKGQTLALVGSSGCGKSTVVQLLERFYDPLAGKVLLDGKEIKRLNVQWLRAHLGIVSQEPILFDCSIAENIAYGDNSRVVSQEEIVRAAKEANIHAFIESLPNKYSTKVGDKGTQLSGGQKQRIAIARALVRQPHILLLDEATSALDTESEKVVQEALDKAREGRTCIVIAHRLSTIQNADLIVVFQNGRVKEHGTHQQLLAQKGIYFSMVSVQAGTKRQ

[9] = target: T1, ATP-binding cassette sub-family C member 2; assay: Inhibition of ATPase activity of MRP2 (unknown origin) expressed in membrane assessed as amount of phosphate released using probenecid as substrate up to 50 uM by molybdenum blue assay
Hepatitis C virus [10] = assay: Antiviral activity against Hepatitis C virus genotype 2a JFH-1 infected in human Huh7 cells assessed as decrease in subgenomic RNA level after 72 hrs by RT-PCR analysis; format: functional, cell-based, Hepacivirus hominis; details: genotype 2a JFH-1, Huh-7, 72 h
[11] = Selectivity index, ratio of CC50 for human Huh5-2 cells to EC50 for Hepatitis C virus genotype 1b I389luc-ubi-neo/NS3-3'/5.1 subgenomic replicon infected in human Huh5-2 cells; format: toxicity, cell-based, Huh-5-2; details: read-out: Ratio CC50/EC50
[12] = Half life in human hepatocytes at 1 uM by LC-MS/MS analysis; format: ADME, cell-based, Hepatocyte
[13] = Drug level in CD-1 mouse blood at 5 mg/kg, po administered as single dose measured for 24 hrs post-dose by LC-MS/MS analysis; format: ADME, organism-based; parameters: dose 5 mg/kg, route oral; details: read-out: Drug uptake
Hepatitis C virus [14] = assay: Antiviral activity against Hepatitis C virus genotype 1b I389luc-ubi-neo/NS3-3'/5.1 subgenomic replicon infected in human Huh5-2 cells after 4 days by luciferase assay; format: functional, cell-based, Hepacivirus hominis; details: Huh-5-2, 96 h
[15] = Ratio of drug level in liver to blood in CD-1 mouse at 5 mg/kg, po administered as single dose measured for 24 hrs post-dose by LC-MS/MS analysis; format: ADME, organism-based; parameters: dose 5 mg/kg, route oral; details: liver and blood
[16] = target: T2, Peptidyl-prolyl cis-trans isomerase A (Homo sapiens, UniProt P62937); assay: Inhibition of recombinant GST-tagged CypA (unknown origin)/HCV Con1 NS5A-His interaction after 16 hrs by ELISA
T2 sequence (P62937 whole entry): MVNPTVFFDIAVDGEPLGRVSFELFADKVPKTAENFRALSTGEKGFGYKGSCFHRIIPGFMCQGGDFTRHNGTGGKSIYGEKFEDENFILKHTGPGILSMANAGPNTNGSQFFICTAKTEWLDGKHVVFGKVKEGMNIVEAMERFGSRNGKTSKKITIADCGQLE

[17] = target: T2, Peptidyl-prolyl cis-trans isomerase A; assay: Inhibition of PPIase activity of recombinant CypA (unknown origin) assessed as chymotrypsin-mediated N-succinyl-Ala-Ala-Pro-Phe-p-nitroanilide hydrolysis after 1 hr by spectrophotometric analysis
physchem = details: n-octanol/potassium phosphate buffer, pH 7.4
[18] = Percentage bound in human plasma at 1 uM after 5 hrs by dialysis chamber method; format: ADME, cell-free; details: read-out: PPB (converted)

Structure (SMILES)	solubility at 4 h [3] [µM]	EC50 (Hepatitis C virus [4]) [nM]	CC50 at 72 h [5] [nM]	half-life at 1 µM (in vitro) [min]	EC50 (Hepatitis C virus [6]) [nM]	half-life at 1 µM [7] [min]	IC50 (PBMC) [nM]	EC50 (Hepatitis C virus [10]) [nM]	selectivity ratio [11]	half-life at 1 µM [12] [min]	EC50 (Hepatitis C virus [14]) [nM]	EC90 (Hepatitis C virus [14]) [nM]	IC50 [16] [nM]	IC50 [17] [nM]	logD at 1 h (physchem)	further results
CCc1oc2ccccc2c1C(=O)c1cc(Br)c(O)c(Br)c1 [BENZBROMARONE]																inhibition (INH) [1]: Active
CC(=O)CC[C@H]1C(=O)N[C@@H](C(C)C)C(=O)N[C@@H](Cc2cccc(O)c2)C(=O)N2CCCC(N2)C(=O)O[C@H](/C(C)=C/C=C/C(=O)N2CCCCO2)C/C=C/C=C/[C@H](O)[C@H](C)[C@H]1O (stereo partly drawn)	> 100	63	> 100000	5.8	58	10.6	1450	89	> 800	220	125	690	360	2.7	2.6	Activity (Hepatitis C virus [2]): Active; Drug uptake (Liver): 20 ng; inhibition (INH) [8]: Not Active; inhibition (INH) [9]: Not Active; concentration at 24 h [13]: 20 ng/mL; Kp at 24 h [15]: 3
CON(C)C(=O)/C=C/C=C(\C)[C@@H]1C/C=C/C=C/[C@H](O)[C@H](C)[C@@H](O)[C@@H](CCC(C)=O)C(=O)N[C@@H](C(C)C)C(=O)N[C@@H](Cc2cccc(O)c2)C(=O)N2CCCC(N2)C(=O)O1 (stereo partly drawn)	> 100	156	> 100000	17.5	128	26.5	1060	247	> 617	> 240	162	920	200	1.1	2.3	fraction unbound at 5 h, 1 µM [18]: 0.73
